The results in this text go back to US4691046A, “Butanedioic acid mono [(2-dimethylamino] ethyl ester)succinate” (Institut Organicheskoi Khimii Ordena Lenina I Ordena …, priority 1986, dated 1987).

Test [1] in a line: Stresso-protective activity, motion stress in slowly rotating drum for 48 hours. The format is in vivo, rats. The following applies: 48 h motion stress, 10 mg/kg i.p. four times (invention, ester). The procedure:
In evaluation of the stresso-protective activity of the compound according to the present invention as a model use was made of a procedure of depriving rats of sleep, meals and water in a slowly rotating drum (at the speed of 0.2 km/h).
The experiments were carried out on 42 nondescript male rats. In parallel experiments the antistress activity of butanedioic acid mono[(2-dimethylamino)ethyl ester] was studied; as the reference prepartion use was made of the prior art tranquilizer--diazepam which was used in the experiments for this very indication.
4 groups of animals were tested in parallel. Groups I and II were placed for 48 hours into a slowly rotating drum, groups III and IV were under normal conditions and were deprived only of meals and water. The compound according to the present invention and butanedioic acid mono[(2-dimethylamino)ethyl ester] were administered intraperitoneally in the dose of 10 mg/kg four times (2 times a day) in the volume of 2.5 ml/kg under the conditions of motion stress (Group I of the animals) and under normal conditions (Group III of animals). The control animals--Group II (active control) and Group IV (passive control) were given a physiological solution. The efficiency of the compound according to the present invention, of butanedioic acid mono[(2-dimethylamino)ethyl ester] and of diazepam was estimated on the basis of a set of characteristics showing the functional activity of the central nervous system, physical fitness and development of basic symptoms of the stress-syndrome.
The residence of control rats in a slowly-rotating drum over 48 hours results in a noticeable deterioration of all the studied characteristics, especially those of higher nervous activity (learning) and development of stress-syndrome. The state of control animals was characterized by lowering of the overall behavioural activity as determined by the "open-field" test (37±15%) with reference to the passive control level, by a reduction in the speed of development of a conventional avoiding response in an aqueous labyrinth (58±15%), by an increase in the number of mistakes during the teaching time (175±25%), lowering of the ultimate physical endurance as determined by the swimming-with-load test (the load is equal to 10% by mass of the body (70±17%), adrenal hypertrophy (146±16%), thymus atrophy (49±9%) and formation of ulcers on the stomach mucous membrane (5.25±1.0%).

Test [2] can be described thus: Survival of mice on acute cooling. Particulars: i.p. 1 hour before, 80 mg/kg (invention), 64 mg/kg (ester), 17 mg/kg (sodium succinate). The format is in vivo. The procedure:
The activity of the compound according to the present invention was studied in experiments on animals. The effectivemess of the compound according to the present invention was studied for resistance against an acute cold effect in comparison with conventional preparations such as butanedioic acid mono[(2-dimethylamino)ethyl ester] and sodium succinate.
The experiments were carried out on male mice (tetrahybdrids) with a body mass of 18-20 g which were placed into a cold chamber at a temperature of -15t to -17° C. in separate plastic cages slightly limiting their activity. […] The preparations were administered intraperiotoneally 1 hour before the cold effect the control animals were administered with a physiological solution.

On to `CN1C(=O)CN=C(c2ccccc2)c2cc(Cl)ccc21` [Diazepam, diazepam], for which the “Weight coefficient of thymus” value in test [1] (control 0.95 ± 0.18) is reported as 2.26 g/kg of the initial body mass. For the same compound, in test [1] (control 1.246 ± 0.028), the “Weight coefficient of adrenal glands” value is listed as 1.010 g/kg of the initial body mass. In addition, the “Number of attempts till reaching the learning criterion (water labyrinth)” value in test [1] (control 4.75 ± 0.5) came out at 7.25. Besides, in test [1] (control 5.25 ± 1.0), the “Number of ulcers on the stomach mucous membrane” value was determined as 1.0. The compound also registered a Duration of swimming in test [1] (control 244 ± 26) of 210 s.

For `O=C(O)CCC(=O)O` [Sodium succinate, sodium succinate], the “Survival, %, 1 hour” value in test [2] (1 hour of cold at -15 to -17° C.) is reported as 100%. Moreover, the “Survival, %, 2 hours” value in test [2] (2 hours of cold at -15 to -17° C.) amounted to 80%. In addition, the “Survival, %, 3 hours” value in test [2] (3 hours of cold at -15 to -17° C.) stood at 70%. Also, the “Survival, %, 4 hours” value in test [2] (4 hours of cold at -15 to -17° C.) was 40%. The “Survival, %, 5 hours” value in test [2] (5 hours of cold at -15 to -17° C.) was 10%. Moreover, in test [2] (6 hours of cold at -15 to -17° C.), the “Survival, %, 6 hours” value is listed as 0%.
